Reference: patent publication US20200017496A1 (priority 2017, published 2020)
Like-named read-outs stand apart in the source and are kept apart here.

Legend:
Assay in all cases: MIC of compounds alone and combined with antibacterials, broth microdilution (CLSI)
Format in all cases: cell-based
[1] = system: Escherichia coli (ECO) isolates; conditions: for MIC: Escherichia coli, ATB alone
Method: (§1) Method 2: MIC of Compounds Alone and Combined with Antibacterials Against Bacterial Isolates.
(§2) Compounds of the present invention were assessed against genotyped bacterial strains (Table 3, 4) alone or in combination with an antibacterial (Table 2). […] Log phase bacterial suspensions were adjusted to a final density of 5·10^5 CFU/mL in cation-adjusted Mueller-Hinton broth (ca-MHB; Becton-Dickinson and Company) and added to each well (98 μL). Microplates were incubated for 16-20 h at 35° C. in ambient air. The MIC of the compounds was defined as the lowest concentration of said compounds that prevented bacterial growth as read by visual inspection. The MIC of ATB at each compound concentration was defined as the lowest concentration of ATB that prevented bacterial growth as read by visual inspection.

[2] = system: Enterobacter aerogenes (EAE) isolates; conditions: for MIC: Klebsiella aerogenes
Method: as §1, §2

[3] = system: Providencia rettgeri (PRE) isolates; conditions: for MIC: Providencia rettgeri, ATB alone; for MIC ATB in combination: strain PRE UFR236
Method: as §1, §2

[4] = system: Providencia stuartii (PST) isolates
Method: as §1, §2

CC(C)(O/N=C(\C(=O)N[C@@H]1C(=O)N2C(C(=O)[O-])=C(C[n+]3ccccc3)CS[C@H]12)c1csc(N)n1)C(=O)O [CAZ, Ceftazidime]
MIC ATB in combination ([1]; ECO UFR189, AF1 @ 4 μg/mL): <=0.25 μg/mL
MIC ATB in combination ([1]; ECO UFR189, AF1 @ 8 μg/mL): <=0.25 μg/mL
MIC ATB in combination ([1]; ECO UFR190, AF1 @ 4 μg/mL): <=0.25 μg/mL
MIC ATB in combination ([1]; ECO UFR190, AF1 @ 8 μg/mL): <=0.25 μg/mL
MIC ATB in combination ([1]; ECO UFR191, AF1 @ 4 μg/mL): <=0.25 μg/mL
MIC ATB in combination ([1]; ECO UFR191, AF1 @ 8 μg/mL): <=0.25 μg/mL
MIC ATB in combination ([1]; ECO UFR207, AF1 @ 4 μg/mL): <=0.25 μg/mL
MIC ATB in combination ([1]; ECO UFR207, AF1 @ 8 μg/mL): <=0.25 μg/mL
MIC ATB in combination ([1]; ECO UFR208, AF1 @ 4 μg/mL): 4 µg/mL
MIC ATB in combination ([1]; ECO UFR208, AF1 @ 8 μg/mL): 2 µg/mL
MIC ATB in combination ([1]; ECO UFR209, AF1 @ 4 μg/mL): <=0.25 μg/mL
MIC ATB in combination ([1]; ECO UFR209, AF1 @ 8 μg/mL): <=0.25 μg/mL
MIC ATB in combination ([1]; ECO UFR210, AF1 @ 4 μg/mL): <=0.25 μg/mL
MIC ATB in combination ([1]; ECO UFR210, AF1 @ 8 μg/mL): <=0.25 μg/mL
MIC ATB in combination ([1]; ECO UFR211, AF1 @ 4 μg/mL): 0.5 µg/mL
MIC ATB in combination ([1]; ECO UFR211, AF1 @ 8 μg/mL): <=0.25 μg/mL
MIC ATB in combination ([1]; ECO UFR212, AF1 @ 4 μg/mL): 4 µg/mL
MIC ATB in combination ([1]; ECO UFR212, AF1 @ 8 μg/mL): <=0.25 μg/mL
MIC ATB in combination ([1]; ECO UFR218, AF1 @ 4 μg/mL): <=0.25 μg/mL
MIC ATB in combination ([1]; ECO UFR218, AF1 @ 8 μg/mL): <0.25 µg/mL
MIC ([1]; strain ECO 4133 (TEM-30, OXA-1)): 0.5 µg/mL
MIC ([1]; strain ECO 5302 (TEM-1, OXA-1)): 0.5 µg/mL
MIC ([1]; strain ECO 131119 (TEM-1, OXA-48)): 0.5 µg/mL
MIC ([1]; strain ECO 190314 (CTX-M-1)): 8 µg/mL
MIC ([1]; strain ECO 190457 (CTX-M-15, OXA-1)): 16 µg/mL
MIC ([1]; strain ECO 190549 (CTX-M-1)): 4 µg/mL
MIC ([1]; strain ECO 200344 (CTX-M-1)): 8 µg/mL
MIC ([1]; strain ECO 260304 (CTX-M-15)): 16 µg/mL
MIC ([1]; strain ECO RGN238 (OXA-1)): 0.5 µg/mL
MIC ([1]; strain ECO UFR15 (TEM-1, OXA-48)): 0.5 µg/mL
MIC ([1]; strain ECO UFR86 (ompC-, ompF-), read-out: MIC): 2 µg/mL
MIC ([1]; strain ECO UFR174 (TEM-1, KPC-2, OXA-1)): 8 µg/mL
MIC ([1]; strain ECO UFR175 (TEM-1, KPC-2, OXA-9)): 32 µg/mL
MIC ([1]; strain ECO UFR185 (OXA-48), read-out: MIC): > 256 µg/mL
MIC ([1]; strain ECO UFR186 (TEM-1, CTX-M-14, OXA-48)): 8 µg/mL
MIC ([1]; strain ECO UFR187 (CTX-M-15, OXA-48)): 8 µg/mL
MIC ([1]; strain ECO UFR191 (TEM-1, CTX-M-24, OXA-48)): 4 µg/mL
MIC ([1]; strain ECO UFR210 (SHV-12)): 32 µg/mL
MIC ATB in combination ([2]; EAE 49469, AF1 @ 4 μg/mL): 8 µg/mL
MIC ATB in combination ([2]; EAE 49469, AF1 @ 8 μg/mL): 2 µg/mL
MIC ATB in combination ([2]; EAE 200261, AF1 @ 4 μg/mL): 2 µg/mL
MIC ATB in combination ([2]; EAE 200261, AF1 @ 8 μg/mL): 0.5 µg/mL
MIC ATB in combination ([2]; EAE UFR199, AF1 @ 4 μg/mL): 1 µg/mL
MIC ATB in combination ([2]; EAE UFR199, AF1 @ 8 μg/mL): 0.5 µg/mL
MIC ATB in combination ([2]; EAE UFR201, AF1 @ 4 μg/mL): 0.5 µg/mL
MIC ATB in combination ([2]; EAE UFR201, AF1 @ 8 μg/mL): <=0.25 μg/mL
MIC ATB in combination ([2]; EAE UFR202, AF1 @ 4 μg/mL): 2 µg/mL
MIC ATB in combination ([2]; EAE UFR202, AF1 @ 8 μg/mL): 1 µg/mL
MIC ATB in combination ([2]; EAE UFR213, AF1 @ 4 μg/mL): 0.5 µg/mL
MIC ATB in combination ([2]; EAE UFR213, AF1 @ 8 μg/mL): 0.5 µg/mL
MIC [2]: > 256 µg/mL
MIC ([2]; strain EAE UFR202 (TEM-24), ATB alone, read-out: MIC): > 256 µg/mL
MIC ([2]; strain EAE UFR213 (TEM-24), ATB alone, read-out: MIC): > 256 µg/mL
MIC ([3]; strain PRE UFR99 (OXA-1, OXA-181)): > 256 µg/mL
MIC ([3]; strain PRE UFR236 (TEM-1, OXA-48), read-out: MIC): 32 µg/mL
MIC ATB in combination ([3]; antibacterial combined with AF1 @ 4 μg/mL): 1 µg/mL
MIC ATB in combination ([3]; antibacterial combined with AF1 @ 8 μg/mL): 0.5 µg/mL
MIC ATB in combination ([4]; PST UFR94, AF1 @ 4 μg/mL): 0.5 µg/mL
MIC ATB in combination ([4]; PST UFR94, AF1 @ 8 μg/mL): <=0.25 μg/mL
MIC ATB in combination ([4]; PST UFR95, AF1 @ 4 μg/mL): 1 µg/mL
MIC ATB in combination ([4]; PST UFR95, AF1 @ 8 μg/mL): 0.5 µg/mL
MIC ATB in combination ([4]; PST UFR235, AF1 @ 4 μg/mL): 1 µg/mL
MIC ATB in combination ([4]; PST UFR235, AF1 @ 8 μg/mL): <=0.25 μg/mL
MIC ([4]; Providencia stuartii, strain PST UFR94 (CTX-M-14), ATB alone, read-out: MIC): 1 µg/mL
